Source: patent US20240067631A1, “PYRAZOLE DERIVATIVES USEFUL AS NAMPT MODULATORS” (Cytokinetics, Inc., priority 2020, published 2024)

Target: human NAMPT (Homo sapiens (Human), UniProt P43490)
Assay: Human recombinant enzyme assay (NMN fluorescence biochemical assay)
Conditions: 6 nM human NAMPT, 60 min; for AC1.4 Human: concentration of compound that generates 40% higher activity over basal; for EC50: concentration that gives half-maximal activation
Experimental: Compounds described herein were assayed for their ability to stimulate the synthesis of nicotinamide mononucleotide (NMN) by the enzyme NAMPT. The human recombinant enzyme assay measures the activation of the enzyme activity by compounds using recombinant enzyme and substrates in a buffered cell-free system. The assay conditions closely mimic cellular environments. Dose responses were measured using an assay to detect the formation of nicotinamide mono-nucleotide. All experiments were performed in the 384-well format. Generally, 0.5 μL of DMSO containing varying concentrations of the test compound was mixed with 10 μL of the enzyme reagent solution. Enzyme reactions were initiated with the addition of 10 μL of a solution containing the substrates. The final assay conditions were as follows: 6 nM human NAMPT, 2.5 mM ATP, […] in 50 mM HEPES, pH 7.2, 1 mM DTT, 1 mM CHAPS 50 mM NaCl, 100 mM MgCl2. Following an incubation of 60 min at ambient temperature, 10 μL of 20% acetophenone in DMSO was added, followed by 10 μL of 2 M KOH and 40 μL of formic acid. The plates were read for fluorescence (Excitation/Emission=355 nm/460 nm) using an EnVision plate reader after 40 mins of incubation at ambient temperature. The potency measurements for compounds, are quantified and represented as AC1.4 (the concentration of compounds that generates 40% higher activity over basal) and EC50 (concentration of the compound that gives half-maximal activation).

Chain of human NAMPT (P43490 whole entry): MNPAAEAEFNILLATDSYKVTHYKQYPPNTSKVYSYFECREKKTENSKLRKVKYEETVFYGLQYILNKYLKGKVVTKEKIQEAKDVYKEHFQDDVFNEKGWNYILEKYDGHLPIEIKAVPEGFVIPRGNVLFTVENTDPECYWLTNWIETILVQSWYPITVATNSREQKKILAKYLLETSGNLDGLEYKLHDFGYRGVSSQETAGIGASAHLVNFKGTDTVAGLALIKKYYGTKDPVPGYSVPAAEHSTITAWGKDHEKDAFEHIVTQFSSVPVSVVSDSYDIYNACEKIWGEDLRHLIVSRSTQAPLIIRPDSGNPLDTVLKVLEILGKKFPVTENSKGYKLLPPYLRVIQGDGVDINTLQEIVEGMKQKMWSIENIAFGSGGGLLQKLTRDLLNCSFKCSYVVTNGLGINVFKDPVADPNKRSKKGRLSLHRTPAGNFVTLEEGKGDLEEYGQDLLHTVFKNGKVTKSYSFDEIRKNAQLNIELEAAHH

| SMILES | AC1.4 Human | EC50 |
| --- | --- | --- |
| Cc1nc(C(=O)N2CC(O)(c3ccccc3F)C2)nc(NCCc2cn[nH]c2)c1C [Compound 77, (4-((2-(1H-pyrazol-4-yl)ethyl)amino)-5,6-dimethylpyrimidin-2-yl)(3-(2-fluorophenyl)-3-hydroxyazetidin-1-yl)methanone] | 0.8835 µM | 13.7 µM |
| Cc1cccc([C@@H](C)NC(=O)c2nc(C)c(C)c(NCCc3cn[nH]c3)n2)n1 [Compound 78, (R)-4-((2-(1H-pyrazol-4-yl)ethyl)amino)-5,6-dimethyl-N-(1-(6-methylpyridin-2-yl)ethyl)pyrimidine-2-carboxamide] | 0.81 µM | 5.62 µM |
| Cc1nc(C(=O)NC2CC(F)(F)c3ccccc32)nc(NCCc2cn[nH]c2)c1C (centres unmarked) [Compound 79, 4-((2-(1H-pyrazol-4-yl)ethyl)amino)-N-(3,3-difluoro-2,3-dihydro-1H-inden-1-yl)-5,6-dimethylpyrimidine-2-carboxmaide] | 0.8395 µM | 4.62 µM |
| Cc1nc(C(=O)N2CCOCC2c2ccccc2Cl)nc(NCCc2cn[nH]c2)c1C (centres unmarked) [Compound 80, (4-((2-(1H-pyrazol-4-yl)ethyl)amino)-5,6-dimethylpyrimidin-2-yl)(3-(2-chlorophenyl)morpholino)methanone] | 0.877 µM | 10.4 µM |
| Cc1nc(C(=O)N2CC(OC(F)(F)F)C2)nc(NCCc2cn[nH]c2)c1C [Compound 81, (4-((2-(1H-pyrazol-4-yl)ethyl)amino)-5,6-dimethylpyrimidin-2-yl)(3-(trifluoromethoxy)azetidin-1-yl)methanone] | 0.891 µM | 5.98 µM |
| COC[C@@H](NC(=O)c1nc(C)c(C)c(NCCc2cn[nH]c2)n1)c1cccc(F)c1 [Compound 82, (S)-4-((2-(1H-pyrazol-4-yl)ethyl)amino)-N-(1-(3-fluorophenyl)-2-methoxyethyl)-5,6-dimethylpyrimidine-2-carboxamide] | 0.966 µM | 3.99 µM |
| Cc1nc(C(=O)NC(C)(C)c2ccc(F)cc2)nc(NCCc2cn[nH]c2)c1C [Compound 83, 4-((2-(1H-pyrazol-4-yl)ethyl)amino)-N-(2-(4-fluorophenyl)propan-2-yl)-5,6-dimethylpyrimidine-2-carboxamide] | 0.9695 µM | 14.5 µM |
| Cc1nc(C(=O)N2CC(CO)(c3ccccc3)C2)nc(NCCc2cn[nH]c2)c1C [Compound 84, (4-((2-(1H-pyrazol-4-yl)ethyl)amino)-5,6-dimethylpyrimidin-2-yl)(3-(hydroxymethyl)-3-phenylazetidin-1-yl)methanone] | 31.857 µM | 40.2 µM |
| Cc1nc(C(=O)NC2(Cc3ccc(F)cc3Cl)CCOCC2)nc(NCCc2cn[nH]c2)c1C [Compound 85, 4-((2-(1H-pyrazol-4-yl)ethyl)amino)-N-(4-(2-chloro-4-fluorobenzyl)tetrahydro-2H-pyran-4-yl)-5,6-dimethylpyrimidine-2-carboxamide] | 1.072 µM | 8.35 µM |
| Cc1nc(C(=O)N2CCC[C@@H]2c2ccc(F)cc2)nc(NCCc2cn[nH]c2)c1C [Compound 86, (R)-(4-((2-(1H-pyrazol-4-yl)ethyl)amino)-5,6-dimethylpyrimidin-2-yl)(2-(4-flurophenyl)pyrrolidin-1-yl)methanone] | 1.1115 µM | 8.04 µM |
| Cc1nc(C(=O)N[C@@H](C)c2ccncc2)nc(NCCc2cn[nH]c2)c1C [Compound 87, (S)-4-((2-(1H-pyrazol-4-yl)ethyl)amino)-5,6-dimethyl-N-(1-(pyridin-4-yl)ethyl)pyrimidine-2-carboxamide] | 1.1375 µM | 13.3 µM |
| COc1cccc(CNC(=O)c2nc(C)c(C)c(NCCc3cn[nH]c3)n2)n1 [Compound 88, 4-((2-(1H-pyrazol-4-yl)ethyl)amino)-N-((6-methoxypyridin-2-yl)methyl)-5,6-dimethylpyrimidine-2-carboxamide] | 1.1435 µM | 7.21 µM |
| Cc1nc(C(=O)N2CC(C)(c3ccccc3)C2)nc(NCCc2cn[nH]c2)c1C [Compound 89, (4-((2-(1H-pyrazol-4-yl)ethyl)amino)-5,6-dimethylpyrimidin-2-yl)(3-methyl-3-phenylazetidin-1-yl)methanone] | 4.9195 µM | 37.3 µM |
| Cc1nc(C(=O)NC(C)c2ccon2)nc(NCCc2cn[nH]c2)c1C (centres unmarked) [Compound 90, 4-((2-(1H-pyrazol-4-yl)ethyl)amino)-N-(1-(isoxazol-3-yl)ethyl)-5,6-dimethylpyrimidine-2-carboxamide] | 1.17 µM | 9.24 µM |
| Cc1nc(C(=O)N2CC(F)(F)C2)nc(NCCc2cn[nH]c2)c1C [Compound 91, (4-((2-(1H-pyrazol-4-yl)ethyl)amino)-5,6-dimethylpyrimidin-2-yl)(3,3-difluoroazetidin-1-yl)methanone] | 0.9345 µM | 7.76 µM |
| COCC(c1ccc(F)cc1)N(C)C(=O)c1nc(C)c(C)c(NCCc2cn[nH]c2)n1 (centres unmarked) [Compound 92, 4-((2-(1H-pyrazol-4-yl)ethyl)amino)-N-(1-(4-fluorophenyl)-2-methoxyethyl)-N,5,6-trimethylpyrimidine-2-carboxamide] | 1.1995 µM | 5.68 µM |
| Cc1nc(C(=O)NCc2ccccn2)nc(NCCc2cn[nH]c2)c1C [Compound 93, 4-((2-(1H-pyrazol-4-yl)ethyl)amino)-5,6-dimethyl-N-(pyridin-2-ylmethyl)pyrimidine-2-carboxamide] | 1.244 µM | 14.9 µM |
| Cc1nc(C(=O)NCC2(c3ccccc3)COC2)nc(NCCc2cn[nH]c2)c1C [Compound 94, 4-((2-(1H-pyrazol-4-yl)ethyl)amino)-5,6-dimethyl-N-((3-phenyloxetan-3-yl)methyl)pyrimidine-2-carboxamide] | 1.271 µM | 8.13 µM |
| Cc1nc(C(=O)N[C@H](C)c2ccncc2)nc(NCCc2cn[nH]c2)c1C [Compound 95, (R)-4-((2-(1H-pyrazol-4-yl)ethyl)amino)-5,6-dimethyl-N-(1-(pyridin-4-yl)ethyl)pyrimidine-2-carboxamide] | 1.2975 µM | 11 µM |
| Cc1nc(C(=O)N2CCC(C#N)(c3ccccc3)CC2)nc(NCCc2cn[nH]c2)c1C [Compound 96, 1-(4-((2-(1H-pyrazol-4-yl)ethyl)amino)-5,6-dimethylpyrimidine-2-carbonyl)-4-phenylpiperidine-4-carbonitrile] | 1.3075 µM | 8.51 µM |
| Cc1nc(C(=O)N2CC(O)(C3CC3)C2)nc(NCCc2cn[nH]c2)c1C [Compound 97, (4-((2-(1H-pyrazol-4 yl)ethyl)amino)-5,6-dimethylpyrimidin-2-yl)(3-cyclopropyl-3-hydroxyazetidin-1-yl)methanone] | 6.337 µM | 22.3 µM |
| Cc1nc(C(=O)NC(c2ccccc2F)c2nccn2C)nc(NCCc2cn[nH]c2)c1C (centres unmarked) [Compound 98, 4-((2-(1H-pyrazol-4-yl)ethyl)amino)-N-((2-fluorophenyl)(1-methyl-1H-imidazol-2-yl)methyl)-5,6-dimethylpyrimidine-2-carboxamide] | 1.3275 µM | 5.15 µM |
| Cc1nc(C(=O)N[C@@H](C)c2ccccc2Cl)nc(NCCc2cn[nH]c2)c1C [Compound 99, (S)-4-((2-(1H-pyrazol-4-yl)ethyl)amino)-N-(1-(2-chlorophenyl)ethyl)-5,6-dimethylpyrimidine-2-carboxamide] | 1.5915 µM | 20 µM |
| Cc1nc(C(=O)N2CC(C(F)(F)F)C2)nc(NCCc2cn[nH]c2)c1C [Compound 100, (4-((2-(1H-pyrazol-4-yl)ethyl)amino)-5,6-dimethylpyrimidin-2-yl)(3-(trifluoromethyl)azetidin-1-yl)methanone] | 6.3085 µM | 40.2 µM |
| COC1(c2ccccc2)CN(C(=O)c2nc(C)c(C)c(NCCc3cn[nH]c3)n2)C1 [Compound 102, (4-((2-(1H-pyrazol-4-yl)ethyl)amino)-5,6-dimethylpyrimidin-2-yl)(3-methoxy-3-phenylazetidin-1-yl)methanone] | 2.0105 µM | 12.9 µM |
| Cc1nc(C(=O)NC(C)c2cncs2)nc(NCCc2cn[nH]c2)c1C (centres unmarked) [Compound 103, 4-((2-(1H-pyrazol-4-yl)ethyl)amino)-5,6-dimethyl-N-(1-(thiazol-5-yl)ethyl)pyrimidine-2-carboxamide] | 1.6375 µM | 21.5 µM |
| Cc1nc(C(=O)NCC(C)(O)c2ccccc2)nc(NCCc2cn[nH]c2)c1C (centres unmarked) [Compound 104, 4-((2-(1H-pyrazol-4-yl)ethyl)amino)-N-(2-hydroxy-2-phenylpropyl)-5,6-dimethylpyrimidine-2-carboxamide] | 1.6495 µM | 11.3 µM |
| Cc1nc(C(=O)NCc2n[nH]c3ccccc23)nc(NCCc2cn[nH]c2)c1C [Compound 105, N-((1H-indazol-3-yl)methyl)-4-((2-(1H-pyrazol-4-yl)ethyl)amino)-5,6-dimethylpyrimidine-2-carboxamide] | 1.669 µM | 2.52 µM |
